From US8394848B2, “Compounds that modulate intracellular calcium” (Calcimedica, Inc., priority 2008, dated 2013)

test system: JR251 or RBL cells; test: Store-operated calcium entry, either JR251 or RBL cells, or both; type: cell-based
Summary of the method: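 FLIPR calcium-entry readout in fluo-4-loaded cells held in Ca2+-free HBSS before calcium add-back. For RBL-2H3, store depletion used thapsigargin for 25 min after a 5 min compound pre-incubation, and IC50 was based on the 7 s Upslope. For Orai1/STIM1 stable cells, compound was pre-incubated 30 min and IC50 was based on Peak-Basal.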

IC50, < 10 µM:
COc1cc(-c2csc(NC(=O)c3nc4ccccc4o3)c2C(=O)O)ccc1Cl [2-(benzo[d]oxazole-2-carboxamido)-4-(4-chloro-3-methoxyphenyl)thiophene-3-carboxylic acid]
O=C(Nc1scc(-c2ccc(Cl)cc2)c1C(=O)O)c1ccc([N+](=O)[O-])o1 [4-(4-chlorophenyl)-2-(5-nitrofuran-2-carboxamido)thiophene-3-carboxylic acid]
Cc1ccc(-c2csc(NC(=O)c3cc(C)n(C)n3)c2C(=O)O)cc1 [2-(1,5-dimethyl-1H-pyrazole-3-carboxamido)-4-p-tolylthiophene-3-carboxylic acid]
Cc1ccc(-c2csc(NC(=O)c3nc4ccccc4o3)c2C(=O)O)c(F)c1F [2-(benzo[d]oxazole-2-carboxamido)-4-(2,3-difluoro-4-methylphenyl)thiophene-3-carboxylic acid]
O=C(Nc1scc(-c2cccc(Cl)c2)c1C(=O)O)c1ccsc1 [4-(3-chlorophenyl)-2-(thiophene-3-carboxamido)thiophene-3-carboxylic acid]
O=C(Nc1scc(/C=C/c2ccc(Cl)cc2)c1C(=O)O)c1cc2ccccc2o1 [(E)-2-(benzofuran-2-carboxamido)-4-(4-chlorostyryl)thiophene-3-carboxylic acid]
O=C(Nc1scc(-c2ccc(Br)cc2)c1C(=O)O)c1cnc2ccccc2n1 [4-(4-bromophenyl)-2-(quinoxaline-2-carboxamido)thiophene-3-carboxylic acid]
Cc1ccc(-c2csc(NC(=O)c3cc(Cl)sc3Cl)c2C(=O)O)cc1 [2-(2,5-dichlorothiophene-3-carboxamido)-4-p-tolylthiophene-3-carboxylic acid]
O=C(Nc1scc(-c2ccc(Cl)cc2)c1C(=O)O)c1nc2ccccc2s1 [2-(benzo[d]thiazole-2-carboxamido)-4-(4-chlorophenyl)thiophene-3-carboxylic acid]
COc1c(F)ccc(-c2csc(NC(=O)c3nc4ccccc4o3)c2C(=O)O)c1F [2-(benzo[d]oxazole-2-carboxamido)-4-(2,4-difluoro-3-methoxyphenyl)thiophene-3-carboxylic acid]
O=C(CSc1ccccc1)Nc1scc(-c2ccc(C(F)(F)F)cc2)c1C(=O)O [2-(2-(phenylthio)acetamido)-4-(4-(trifluoromethyl)phenyl)thiophene-3-carboxylic acid]
COc1ccc(CCC(=O)Nc2scc(-c3ccc(Br)cc3)c2C(=O)O)cc1 [4-(4-bromophenyl)-2-(3-(4-methoxyphenyl)propanamido)thiophene-3-carboxylic acid]
COc1cccc2c1CC(C(=O)Nc1scc(-c3ccc(Br)cc3)c1C(=O)O)CC2 (centres unmarked) [4-(4-bromophenyl)-2-(8-methoxy-1,2,3,4-tetrahydronaphthalene-2-carboxamido)thiophene-3-carboxylic acid]
O=C(Nc1scc(-c2ccc(Br)cc2)c1C(=O)O)c1ccc2nnsc2c1 [2-(benzo[d][1,2,3]thiadiazole-6-carboxamido)-4-(4-bromophenyl)thiophene-3-carboxylic acid]
Cc1c(F)ccc(-c2csc(NC(=O)c3cc4ccccc4o3)c2C(=O)O)c1C [2-(benzofuran-2-carboxamido)-4-(4-fluoro-2,3-dimethylphenyl)thiophene-3-carboxylic acid]
O=C(Nc1scc(-c2ccc(Cl)cc2)c1C(=O)O)c1nc2cccc(F)c2o1 [4-(4-chlorophenyl)-2-(7-fluorobenzo[d]oxazole-2-carboxamido)thiophene-3-carboxylic acid]
CCc1cccc(NC(=O)Nc2scc(-c3ccc(Br)cc3)c2C(=O)O)c1 [4-(4-bromophenyl)-2-(3-(3-ethylphenyl)ureido)thiophene-3-carboxylic acid]
O=C(Nc1scc(-c2ccc(C(F)(F)F)cc2Cl)c1C(=O)O)c1nc2ccccc2o1 [2-(benzo[d]oxazole-2-carboxamido)-4-(2-chloro-4-(trifluoromethyl)phenyl)thiophene-3-carboxylic acid]
O=C(CCc1ccccc1)Nc1scc(-c2ccc(Cl)cc2F)c1C(=O)O [4-(4-chloro-2-fluorophenyl)-2-(3-phenylpropanamido)thiophene-3-carboxylic acid]
COc1ccc(C(=O)Nc2scc(-c3ccc(Cl)cc3)c2C(=O)O)c(OC)n1 [4-(4-chlorophenyl)-2-(2,6-dimethoxynicotinamido)thiophene-3-carboxylic acid]
CC(C)C(C(=O)Nc1scc(-c2ccc(Cl)c(Cl)c2)c1C(=O)O)c1ccc(Cl)cc1 (centres unmarked) [2-(2-(4-chlorophenyl)-3-methylbutanamido)-4-(3,4-dichlorophenyl)thiophene-3-carboxylic acid]
O=C(O)c1c(-c2ccc(Cl)cc2)csc1NC(=O)C(Cl)Cc1ccccc1 (centres unmarked) [2-(2-chloro-3-phenylpropanamido)-4-(4-chlorophenyl)thiophene-3-carboxylic acid]
O=C(O)c1c(-c2ccc(Cl)cc2)csc1NC(=O)C(F)Cc1c(F)cccc1Cl (centres unmarked) [2-(3-(2-chloro-6-fluorophenyl)-2-fluoropropanamido)-4-(4-chlorophenyl)thiophene-3-carboxylic acid]
Cc1cccc(C)c1CCC(=O)Nc1scc(-c2ccc(Cl)cc2)c1C(=O)O [4-(4-chlorophenyl)-2-(3-(2,6-dimethylphenyl)propanamido)thiophene-3-carboxylic acid]
Cn1cnc(C(=O)Nc2scc(-c3ccc(Br)cc3)c2C(=O)O)c1 [4-(4-bromophenyl)-2-(1-methyl-1H-imidazole-4-carboxamido)thiophene-3-carboxylic acid]
O=C(CCc1ccccc1)Nc1scc(-c2ccc(Cl)cc2Cl)c1C(=O)O [4-(2,4-dichlorophenyl)-2-(3-phenylpropanamido)thiophene-3-carboxylic acid]
O=C(Nc1scc(-c2cc3cccc(O)c3o2)c1C(=O)O)c1nc2ccccc2s1 [2-(benzo[d]thiazole-2-carboxamido)-4-(7-hydroxybenzofuran-2-yl)thiophene-3-carboxylic acid]
Cc1ccc(-c2csc(NC(=O)c3nc4cc(Br)ccc4o3)c2C(=O)O)c(F)c1F [2-(5-bromobenzo[d]oxazole-2-carboxamido)-4-(2,3-difluoro-4-methylphenyl)thiophene-3-carboxylic acid]
O=C(Nc1scc(-c2ccc(Br)cc2)c1C(=O)O)c1cc2occc2[nH]1 [4-(4-bromophenyl)-2-(4H-furo[3,2-b]pyrrole-5-carboxamido)thiophene-3-carboxylic acid]
O=C(Nc1scc(-c2ccc(Cl)cc2)c1C(=O)O)c1ccc2nccn2c1 [4-(4-chlorophenyl)-2-(imidazo[1,2-a]pyridine-6-carboxamido)thiophene-3-carboxylic acid]
O=C(Nc1scc(-c2ccc(Cl)cc2)c1C(=O)O)c1ccc(C(F)(F)F)nc1 [4-(4-chlorophenyl)-2-(6-(trifluoromethyl)nicotinamido)thiophene-3-carboxylic acid]
O=C(Nc1scc(-c2ccc(Cl)cc2)c1C(=O)O)c1cnc2ccccc2n1 [4-(4-chlorophenyl)-2-(quinoxaline-2-carboxamido)thiophene-3-carboxylic acid]
O=C(Nc1scc(-c2cc3ccc(Br)cc3o2)c1C(=O)O)c1cc2ccccc2o1 [2-(benzofuran-2-carboxamido)-4-(6-bromobenzofuran-2-yl)thiophene-3-carboxylic acid]
O=C(Nc1scc(-c2cc3cccc(O)c3o2)c1C(=O)O)c1cc2cccc(O)c2o1 [2-(7-hydroxybenzofuran-2-carboxamido)-4-(7-hydroxybenzofuran-2-yl)thiophene-3-carboxylic acid]
Cc1ccc(-c2csc(NC(=O)c3cccs3)c2C(=O)O)cc1 [2-(thiophene-2-carboxamido)-4-p-tolylthiophene-3-carboxylic acid]
O=C(O)c1c(-c2ccc(Cl)cc2)csc1NC(=O)C(F)Cc1c(Cl)cccc1Cl (centres unmarked) [4-(4-chlorophenyl)-2-(3-(2,6-dichlorophenyl)-2-fluoropropanamido)thiophene-3-carboxylic acid]
O=C(Nc1scc(-c2ccc(Br)cc2)c1C(=O)O)c1cccc(F)n1 [4-(4-bromophenyl)-2-(6-fluoropicolinamido)thiophene-3-carboxylic acid]
NC(=O)c1c(-c2ccc(Br)cc2)csc1-n1c(C(=O)O)nc2ccccc21 [N-(4-(4-bromophenyl)-3-carbamoylthiophen-2-yl)-1H-benzo[d]imidazole-2-carboxylic acid]
O=C(CCc1c(Cl)cccc1Cl)Nc1scc(-c2ccc(Br)cc2)c1C(=O)O [4-(4-bromophenyl)-2-(3-(2,6-dichlorophenyl)propanamido)thiophene-3-carboxylic acid]
O=C(Cc1coc2ccccc12)Nc1scc(-c2ccc(Br)cc2)c1C(=O)O [2-(2-(benzofuran-3-yl)acetamido)-4-(4-bromophenyl)thiophene-3-carboxylic acid]
COc1cc(F)c(-c2csc(NC(=O)c3cc4ccccc4o3)c2C(=O)O)c(F)c1 [2-(benzofuran-2-carboxamido)-4-(2,6-difluoro-4-methoxyphenyl)thiophene-3-carboxylic acid]
